Paper PMC12090182, “Repurposing of the RIPK1-Selective Benzo[1,4]oxazepin-4-one Scaffold for the Development of a Type III LIMK1/2 Inhibitor” (ACS Chemical Biology, 2025)
Like-named read-outs stand apart in the source and are kept apart here.

What was measured:
Assay in all cases: biochemical
Type in all cases: binding
[1] = system: 468 kinases including some pathogenic mutants
[2] = target: 468 kinases including some pathogenic mutants (Homo sapiens, UniProt P53778); conditions: p38-gamma (Entrez MAPK12), 100 nM; read-out: Percent Control
[3] = target: 468 kinases including some pathogenic mutants (Homo sapiens, UniProt Q9NYY3); conditions: PLK2 (Entrez PLK2), 1000 nM; read-out: Percent Control
[4] = target: 468 kinases including some pathogenic mutants (Homo sapiens, UniProt Q9UEE5); conditions: DRAK1 (Entrez STK17A), 100 nM; read-out: Percent Control
[5] = target: 468 kinases including some pathogenic mutants (Homo sapiens, UniProt Q7L7X3); conditions: TAOK1 (Entrez TAOK1), 1000 nM; read-out: Percent Control
[6] = target: 468 kinases including some pathogenic mutants (Homo sapiens, UniProt P46734); conditions: MEK3 (Entrez MAP2K3), 100 nM; read-out: Percent Control
[7] = target: 468 kinases including some pathogenic mutants (Homo sapiens, UniProt P17612); conditions: PKAC-alpha (Entrez PRKACA), 1000 nM; read-out: Percent Control
[8] = target: 468 kinases including some pathogenic mutants (Homo sapiens, UniProt P00519, E255K); conditions: read-out: Percent Control
[9] = target: 468 kinases including some pathogenic mutants (Homo sapiens, UniProt Q5S007, G2019S); conditions: read-out: Percent Control
[10] = target: 468 kinases including some pathogenic mutants (Homo sapiens, UniProt Q5VT25); conditions: MRCKA (Entrez CDC42BPA), 100 nM; read-out: Percent Control
[11] = target: 468 kinases including some pathogenic mutants (Homo sapiens, UniProt Q16539); conditions: p38-alpha (Entrez MAPK14), 1000 nM; read-out: Percent Control
[12] = target: 468 kinases including some pathogenic mutants (Homo sapiens, UniProt Q12851); conditions: MAP4K2 (Entrez MAP4K2), 100 nM; read-out: Percent Control
[13] = target: 468 kinases including some pathogenic mutants (Homo sapiens, UniProt Q16832); conditions: DDR2 (Entrez DDR2), 100 nM; read-out: Percent Control
[14] = target: 468 kinases including some pathogenic mutants (Homo sapiens, UniProt Q9Y5S2); conditions: MRCKB (Entrez CDC42BPB), 1000 nM; read-out: Percent Control
[15] = target: 468 kinases including some pathogenic mutants (Homo sapiens, UniProt Q96PN8); conditions: TSSK3 (Entrez TSSK3), 1000 nM; read-out: Percent Control
[16] = target: 468 kinases including some pathogenic mutants (Homo sapiens, UniProt Q8TDR2); conditions: STK35 (Entrez STK35), 1000 nM; read-out: Percent Control
[17] = target: 468 kinases including some pathogenic mutants (Homo sapiens, UniProt Q15139); conditions: PRKD1 (Entrez PRKD1), 100 nM; read-out: Percent Control
[18] = target: 468 kinases including some pathogenic mutants (Homo sapiens, UniProt Q04759); conditions: PRKCQ (Entrez PRKCQ), 100 nM; read-out: Percent Control
[19] = target: 468 kinases including some pathogenic mutants (Homo sapiens, UniProt Q9P0L2); conditions: MARK1 (Entrez MARK1), 1000 nM; read-out: Percent Control
[20] = target: 468 kinases including some pathogenic mutants (Homo sapiens, UniProt Q8NEB9); conditions: VPS34 (Entrez PIK3C3), 1000 nM; read-out: Percent Control
[21] = target: 468 kinases including some pathogenic mutants (Homo sapiens, UniProt Q9P1W9); conditions: PIM2 (Entrez PIM2), 100 nM; read-out: Percent Control
[22] = target: 468 kinases including some pathogenic mutants (Homo sapiens, UniProt Q13523); conditions: PRP4 (Entrez PRPF4B), 1000 nM; read-out: Percent Control
[23] = target: 468 kinases including some pathogenic mutants (Homo sapiens, UniProt P00519, H396P)
[24] = target: 468 kinases including some pathogenic mutants (Homo sapiens, UniProt P07949, V804L); conditions: read-out: Percent Control
[25] = target: 468 kinases including some pathogenic mutants (Homo sapiens, UniProt Q14289); conditions: PYK2 (Entrez PTK2B), 100 nM; read-out: Percent Control
[26] = target: 468 kinases including some pathogenic mutants (Homo sapiens, UniProt P21709); conditions: EPHA1 (Entrez EPHA1), 100 nM; read-out: Percent Control
[27] = target: 468 kinases including some pathogenic mutants (Homo sapiens, UniProt P00519, T315I); conditions: read-out: Percent Control
[28] = target: 468 kinases including some pathogenic mutants (Homo sapiens, UniProt O75676); conditions: 1000 nM, read-out: Percent Control
[29] = target: 468 kinases including some pathogenic mutants (Homo sapiens, UniProt P53350); conditions: PLK1 (Entrez PLK1), 100 nM; read-out: Percent Control

Sequence of 468 kinases including some pathogenic mutants (Homo sapiens, UniProt O75676) (O75676 whole entry, change not shown): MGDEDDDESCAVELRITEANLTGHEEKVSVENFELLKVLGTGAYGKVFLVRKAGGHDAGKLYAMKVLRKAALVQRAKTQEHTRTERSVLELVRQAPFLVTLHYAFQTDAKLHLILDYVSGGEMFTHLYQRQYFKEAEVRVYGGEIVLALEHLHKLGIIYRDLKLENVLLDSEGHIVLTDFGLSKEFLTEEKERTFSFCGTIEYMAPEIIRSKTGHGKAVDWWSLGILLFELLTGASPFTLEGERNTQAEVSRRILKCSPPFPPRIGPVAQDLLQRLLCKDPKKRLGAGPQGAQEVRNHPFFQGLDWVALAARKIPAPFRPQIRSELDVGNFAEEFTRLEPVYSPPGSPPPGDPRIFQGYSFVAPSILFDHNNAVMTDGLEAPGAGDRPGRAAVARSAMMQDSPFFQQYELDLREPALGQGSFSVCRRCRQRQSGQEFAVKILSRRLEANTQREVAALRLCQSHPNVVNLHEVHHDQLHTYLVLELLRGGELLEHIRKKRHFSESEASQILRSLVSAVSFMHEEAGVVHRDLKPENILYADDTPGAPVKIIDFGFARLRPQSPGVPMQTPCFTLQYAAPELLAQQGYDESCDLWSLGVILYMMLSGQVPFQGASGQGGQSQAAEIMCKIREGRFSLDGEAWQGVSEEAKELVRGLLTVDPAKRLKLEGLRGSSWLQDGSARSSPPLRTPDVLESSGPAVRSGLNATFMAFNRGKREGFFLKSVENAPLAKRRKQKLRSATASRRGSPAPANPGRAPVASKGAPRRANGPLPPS
Sequence of 468 kinases including some pathogenic mutants (Homo sapiens, UniProt Q9P0L2) (Q9P0L2 whole entry, change not shown): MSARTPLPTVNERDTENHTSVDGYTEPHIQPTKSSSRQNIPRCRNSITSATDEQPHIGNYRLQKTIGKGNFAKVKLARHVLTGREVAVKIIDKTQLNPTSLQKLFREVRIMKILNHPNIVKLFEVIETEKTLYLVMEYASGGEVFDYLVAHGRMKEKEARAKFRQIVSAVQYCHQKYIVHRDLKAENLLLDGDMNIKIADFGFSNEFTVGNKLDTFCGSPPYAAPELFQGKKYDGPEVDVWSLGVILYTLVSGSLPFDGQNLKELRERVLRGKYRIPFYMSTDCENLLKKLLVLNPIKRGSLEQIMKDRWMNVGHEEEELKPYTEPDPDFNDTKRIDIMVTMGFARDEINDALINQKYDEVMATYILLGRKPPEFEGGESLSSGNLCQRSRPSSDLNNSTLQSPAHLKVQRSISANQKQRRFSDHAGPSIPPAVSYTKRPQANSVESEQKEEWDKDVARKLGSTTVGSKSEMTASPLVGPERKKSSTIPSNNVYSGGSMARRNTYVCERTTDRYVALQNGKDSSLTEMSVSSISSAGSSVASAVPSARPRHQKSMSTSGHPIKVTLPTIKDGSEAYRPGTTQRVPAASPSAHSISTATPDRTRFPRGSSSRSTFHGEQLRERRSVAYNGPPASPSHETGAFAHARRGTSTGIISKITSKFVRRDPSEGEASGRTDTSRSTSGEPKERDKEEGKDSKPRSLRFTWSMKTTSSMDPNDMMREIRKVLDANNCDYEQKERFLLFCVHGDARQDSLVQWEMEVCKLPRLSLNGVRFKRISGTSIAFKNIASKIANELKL
Sequence of 468 kinases including some pathogenic mutants (Homo sapiens, UniProt Q96PN8) (Q96PN8 whole entry, change not shown): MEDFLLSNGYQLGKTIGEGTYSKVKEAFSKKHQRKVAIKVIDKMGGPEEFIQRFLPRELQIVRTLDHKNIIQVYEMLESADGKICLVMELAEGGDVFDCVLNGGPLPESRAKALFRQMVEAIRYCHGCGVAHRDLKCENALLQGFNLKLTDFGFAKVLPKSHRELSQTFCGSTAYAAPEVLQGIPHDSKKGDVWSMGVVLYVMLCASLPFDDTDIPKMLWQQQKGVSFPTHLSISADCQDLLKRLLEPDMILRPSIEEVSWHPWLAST
Sequence of 468 kinases including some pathogenic mutants (Homo sapiens, UniProt Q7L7X3) (Q7L7X3 whole entry, change not shown): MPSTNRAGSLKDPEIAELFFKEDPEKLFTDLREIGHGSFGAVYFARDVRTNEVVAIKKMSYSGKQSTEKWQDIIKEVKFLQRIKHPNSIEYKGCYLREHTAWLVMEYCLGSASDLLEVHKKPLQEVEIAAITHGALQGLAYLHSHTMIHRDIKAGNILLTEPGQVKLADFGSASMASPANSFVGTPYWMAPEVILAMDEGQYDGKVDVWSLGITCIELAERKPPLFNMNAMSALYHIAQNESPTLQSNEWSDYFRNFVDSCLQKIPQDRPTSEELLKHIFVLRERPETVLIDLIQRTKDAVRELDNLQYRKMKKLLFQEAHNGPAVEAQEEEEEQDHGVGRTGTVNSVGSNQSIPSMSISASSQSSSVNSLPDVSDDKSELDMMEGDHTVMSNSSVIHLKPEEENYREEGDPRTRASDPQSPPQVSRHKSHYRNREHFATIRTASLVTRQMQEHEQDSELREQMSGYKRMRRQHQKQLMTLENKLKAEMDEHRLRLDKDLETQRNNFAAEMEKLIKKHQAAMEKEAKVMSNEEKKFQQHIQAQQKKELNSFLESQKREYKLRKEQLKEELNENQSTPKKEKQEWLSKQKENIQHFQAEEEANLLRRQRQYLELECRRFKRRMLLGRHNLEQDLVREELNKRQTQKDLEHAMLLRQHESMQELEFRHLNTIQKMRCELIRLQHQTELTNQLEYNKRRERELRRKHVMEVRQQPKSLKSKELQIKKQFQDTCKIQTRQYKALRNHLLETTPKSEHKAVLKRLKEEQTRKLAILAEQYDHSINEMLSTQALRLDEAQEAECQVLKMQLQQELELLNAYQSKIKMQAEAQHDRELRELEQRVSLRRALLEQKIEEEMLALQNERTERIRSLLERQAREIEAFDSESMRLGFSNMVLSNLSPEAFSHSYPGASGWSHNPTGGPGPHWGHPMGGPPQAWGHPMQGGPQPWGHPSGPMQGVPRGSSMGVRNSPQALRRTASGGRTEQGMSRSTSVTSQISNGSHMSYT
Sequence of 468 kinases including some pathogenic mutants (Homo sapiens, UniProt Q12851) (Q12851 whole entry, change not shown): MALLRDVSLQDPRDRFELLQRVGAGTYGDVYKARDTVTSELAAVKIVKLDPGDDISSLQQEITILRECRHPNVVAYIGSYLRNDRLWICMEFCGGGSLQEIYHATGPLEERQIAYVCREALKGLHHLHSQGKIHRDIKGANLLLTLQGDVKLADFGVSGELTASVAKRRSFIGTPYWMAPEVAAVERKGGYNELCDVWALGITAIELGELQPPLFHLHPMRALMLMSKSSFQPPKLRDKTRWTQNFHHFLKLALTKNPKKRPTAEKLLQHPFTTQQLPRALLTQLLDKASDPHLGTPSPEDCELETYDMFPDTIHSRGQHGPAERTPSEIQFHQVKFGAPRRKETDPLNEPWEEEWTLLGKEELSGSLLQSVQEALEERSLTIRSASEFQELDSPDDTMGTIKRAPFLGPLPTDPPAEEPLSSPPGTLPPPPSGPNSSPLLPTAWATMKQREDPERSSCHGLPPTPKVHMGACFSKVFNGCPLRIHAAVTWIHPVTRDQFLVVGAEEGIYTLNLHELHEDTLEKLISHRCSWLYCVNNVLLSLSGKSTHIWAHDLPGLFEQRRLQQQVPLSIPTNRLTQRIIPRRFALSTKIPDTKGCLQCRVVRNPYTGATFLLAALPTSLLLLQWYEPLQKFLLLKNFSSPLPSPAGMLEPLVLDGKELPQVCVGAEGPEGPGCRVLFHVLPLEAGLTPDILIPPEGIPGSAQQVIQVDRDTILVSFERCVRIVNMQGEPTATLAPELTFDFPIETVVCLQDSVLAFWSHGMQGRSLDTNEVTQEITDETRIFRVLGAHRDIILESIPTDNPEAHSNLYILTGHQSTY
Sequence of 468 kinases including some pathogenic mutants (Homo sapiens, UniProt Q8TDR2) (Q8TDR2 whole entry, change not shown): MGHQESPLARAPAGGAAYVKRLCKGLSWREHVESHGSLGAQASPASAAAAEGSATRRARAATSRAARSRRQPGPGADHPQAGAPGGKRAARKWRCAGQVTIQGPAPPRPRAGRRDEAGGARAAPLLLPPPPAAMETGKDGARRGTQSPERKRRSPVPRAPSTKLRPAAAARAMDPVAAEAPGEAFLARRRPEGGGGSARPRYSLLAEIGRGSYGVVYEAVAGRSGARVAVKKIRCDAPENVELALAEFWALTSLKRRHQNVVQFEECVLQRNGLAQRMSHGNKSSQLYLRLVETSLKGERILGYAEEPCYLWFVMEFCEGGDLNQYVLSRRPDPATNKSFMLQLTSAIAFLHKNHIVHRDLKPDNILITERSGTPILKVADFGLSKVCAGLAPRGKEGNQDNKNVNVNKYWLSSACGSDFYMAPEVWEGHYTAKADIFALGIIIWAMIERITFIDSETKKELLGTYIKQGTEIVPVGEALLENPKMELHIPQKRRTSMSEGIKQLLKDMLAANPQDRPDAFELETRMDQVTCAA
Sequence of 468 kinases including some pathogenic mutants (Homo sapiens, UniProt Q8NEB9) (Q8NEB9 whole entry, change not shown): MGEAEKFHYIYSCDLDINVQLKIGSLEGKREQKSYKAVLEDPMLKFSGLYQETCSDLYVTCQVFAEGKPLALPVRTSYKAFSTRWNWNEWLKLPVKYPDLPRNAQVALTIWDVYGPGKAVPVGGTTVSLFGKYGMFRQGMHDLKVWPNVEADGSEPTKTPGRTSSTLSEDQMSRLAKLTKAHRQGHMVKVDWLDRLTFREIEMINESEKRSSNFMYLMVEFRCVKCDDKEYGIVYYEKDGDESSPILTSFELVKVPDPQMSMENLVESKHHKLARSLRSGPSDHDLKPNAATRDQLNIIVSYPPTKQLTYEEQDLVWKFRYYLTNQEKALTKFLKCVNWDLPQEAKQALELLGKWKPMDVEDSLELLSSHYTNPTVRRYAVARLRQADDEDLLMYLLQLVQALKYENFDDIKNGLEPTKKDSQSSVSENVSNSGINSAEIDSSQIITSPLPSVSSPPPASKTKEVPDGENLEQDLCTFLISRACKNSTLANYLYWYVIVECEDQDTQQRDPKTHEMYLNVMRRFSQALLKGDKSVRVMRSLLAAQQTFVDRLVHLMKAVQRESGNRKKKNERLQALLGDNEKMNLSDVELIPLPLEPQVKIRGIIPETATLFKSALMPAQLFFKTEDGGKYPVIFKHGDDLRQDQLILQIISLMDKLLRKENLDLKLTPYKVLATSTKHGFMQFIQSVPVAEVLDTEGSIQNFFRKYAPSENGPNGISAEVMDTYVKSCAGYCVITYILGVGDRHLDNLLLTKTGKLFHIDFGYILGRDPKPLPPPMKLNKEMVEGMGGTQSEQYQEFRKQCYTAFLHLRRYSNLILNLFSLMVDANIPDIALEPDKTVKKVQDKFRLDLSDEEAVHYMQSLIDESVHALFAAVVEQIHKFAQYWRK

CN1C(=O)[C@@H](N2CCc3c(nn(Cc4ccccc4)c3C(N)=O)C2=O)COc2cc(Cl)ccc21 [Compound 10, (S)-2-benzyl-6-(8-chloro-5-methyl-4-oxo-2,3,4,5-tetrahydrobenzo[b][1,4]oxazepin-3-yl)-7-oxo-4,5,6,7-tetrahydro-2H-pyrazolo[3,4-c]pyridine-3-carboxamide]
Percent Control [1]: 100%
Percent Control ([1]; FLT3(ITD) (Entrez FLT3), 100 nM): 54%
remaining activity at 0.1 µM [2]: 65%
remaining activity at 1 µM [3]: 100%
remaining activity at 0.1 µM [4]: 84%
remaining activity at 1 µM [5]: 100%
remaining activity at 0.1 µM [6]: 85%
remaining activity at 1 µM [7]: 100%
remaining activity at 0.1 µM [8]: 84%
remaining activity at 0.1 µM [9]: 85%
remaining activity at 0.1 µM [10]: 73%
remaining activity at 1 µM [11]: 100%
remaining activity at 0.1 µM [12]: 70%
remaining activity at 0.1 µM [13]: 84%
remaining activity at 1 µM [14]: 100%
remaining activity at 1 µM [15]: 100%
remaining activity at 1 µM [16]: 100%
remaining activity at 0.1 µM [17]: 65%
remaining activity at 0.1 µM [18]: 88%
remaining activity at 1 µM [19]: 100%
remaining activity at 1 µM [20]: 100%
remaining activity at 0.1 µM [21]: 83%
remaining activity at 1 µM [22]: 100%
Percent Control ([23]; listed as LIJTF500025): 73%
remaining activity at 0.1 µM ([23]; read-out: Percent Control): 67%
remaining activity at 1 µM [24]: 100%
remaining activity at 0.1 µM [25]: 88%
remaining activity at 0.1 µM [26]: 91%
remaining activity at 0.1 µM [27]: 100%
remaining activity at 1 µM ([28]; RPS6KA4(Kin.Dom.1-N-terminal) (Entrez RPS6KA4)): 100%
remaining activity at 1 µM ([28]; RPS6KA4(Kin.Dom.2-C-terminal) (Entrez RPS6KA4)): 100%
remaining activity at 0.1 µM [29]: 68%
